Experimental data taken from patent US12448655B2, “Antibiotic susceptibility of microorganisms and related methods and systems” (CALIFORNIA INSTITUTE OF TECHNOLOGY, priority 2017, dated 2025).

Tests used:
E. coli isolates = experiment: Quantification of DNA release following antibiotic exposure, filtration and ddPCR (Example 27); type: cell-based, Escherichia coli; parameters: dose or concentration left out as unconfirmed; conditions: 15 min exposure, 0.22 μm filtration, ddPCR
Experimental: Filtration experiments. Filtration experiments were performed using E. coli isolates exposed to 0.5 μg/mL ertapenem for 15 min. Immediately following exposure, cultures were passed through 0.22 μm, 1.5 mL cellulose acetate centrifuge tube filters (Corning Costar Spin-X, Corning, NY) by adding 50 μL of sample to the filter and centrifuging for 4 minutes at 1000 ref. DNA was extracted from both the feed and filtrate using QuickExtract DNA Extraction Solution (Lucigen, Middleton, WI, USA). Samples were diluted 10× into extraction buffer and extracted according to manufacturer instructions. The concentration of the single copy E. coli uidA gene was then quantified in the feed and filtrate extractions. The percentage of E. coli DNA in the filtrate was calculated as the filtrate concentration divided by the feed concentration. Droplet digital PCR (ddPCR) was performed using QX200 ddPCR Supermix for EvaGreen (BioRad). 10% of the final reaction volume was template. Published primers targeting the uidA gene in E. coli were used at a final concentration of 500 nM. Cycling conditions consisted of 5.0 min at 95° C., followed by 40 cycles of 95° C. for 30 sec, 60° C. for 30 sec, and 72° C. for 30 sec., with final dye stabilization steps of 4° C. for 5.0 min followed by 90° C. for 5.0 min.
To investigate the mechanism of pol-aAST, experiments were performed to separate free NAs from NAs contained within structurally intact cells or associated with cell debris. Susceptible and resistant clinical isolates were exposed to β-lactams for 15 min, then filtered through […] filters to remove cells from free NAs. NAs in the sample and eluate were then quantified using droplet digital PCR (ddPCR).

Neisseria gonorrhoeae [1] = experiment: AST by inaccessible DNA, 1 incubation step with Triton X-100 and DNaseI, qPCR (Example 1); type: cell-based
Experimental: An antibiotic susceptibility test can be performed with methods herein described comprising 15-minute co-incubation of the sample with antibiotics and an enhancing treatment followed by cell lysis, and detection of differences in amounts of detected DNA between the antibiotic-susceptible and a corresponding control but not in antibiotic-resistant NG isolates with respect to a corresponding control.
For each isolate, two incubation tubes were prepared in 2 mL purple cap tubes (VWR Cat #89004-298), following the indication in table x below, titled “Antibiotic Exposure per 500 μL”. Add Triton X (enhancer), DNaseI (Cat: M0303L) (degrader), NaHCO3 (conditioner).
The antibiotic incubation/exposure was performed on a heat-shake block fit to 2 mL purple cap tubes (VWR Cat #89004-298). The particular shake-block was measured with a thermocouple to ensure the temperature inside the tubes with 500 μL of media is 37° C. (settings 38° C. and 1000 rpm shaking), qPCR was used for NA amplification
Extraction was performed following “DEB Extraction” description in the general methods using Eppendorf tubes. Vortex samples briefly (2 seconds) and centrifuge before transferring 10 μL of the sample to 90 μL of the extraction buffer. • 9. Optionally, continue incubation of the treated and untreated samples for a control of the antibiotic efficacy over >15 minute exposures
The “qPCR” description in the general methods was followed. All DEB-extracted DNA were quantified using a primer mix=(10 µM forward and reverse) targeting N. gonorrhoeae porA gene. Samples were run in qPCR triplicates (10 μL reactions) at an annealing temperature 62° C. The primers target the porA gene. • 11. Data analysis is performed on the raw cq measurements obtained from the qPCR instrument

Neisseria gonorrhoeae [2] = experiment: Two-step aAST with surfactant (CHAPS) only in the secondary exposure, qPCR CT ratio (Example 11); type: cell-based; conditions: 1 μg/mL ceftriaxone 15 min, then 10 mM CHAPS with DNaseI 5 min
Experimental: This example was performed using a two-step exposure in which the first step is exposure to a beta-lactam antibiotic and the second step is a 1:1 dilution into DNaseI treatment in the presence of a surfactant.
The inclusion of the surfactant enhances the accessible nucleic acids made available by short (15 minute) b-lactam exposure by adding a second incubation step with a surfactant. Differences in DNA accessibility between the unexposed and exposed tubes are enhanced. DNaseI is used to degrade the DNA made accessible by beta-lactam treatment and the surfactant.
FIG. 23 describes the layout of this experiment. An NG isolate is incubated with a beta-lactam antibiotic for 15 minutes, followed by a DNaseI digestion step in the presence of surfactant. At each time point, DNaseI will be added to degrade the accessible DNA, then the DNaseI will be inactivated simultaneously with the lysis of the remaining cells. The quantified nucleic acids represent those inaccessible from the DNaseI throughout the exposure protocol. • 1. Provide incubation media containing enhancer, accessibility, with and without an antibiotic for each isolate
The samples were mixed before transferring 25 μL of the sample to the prepared secondary incubation (enhancer) tubes. […]

Neisseria gonorrhoeae [3] = experiment: Minimum inhibitory concentrations (MICs) of Neisseria gonorrhoeae clinical isolates; type: cell-based
Experimental: Isolates and agar-dilution MIC testing. Isolates were provided by the University of Washington Neisseria Reference Laboratory and the Centers for Disease Control (CDC) Antibiotic Resistance Isolate Bank Neisseria gonorrhoeae panel (SINuca-Table). MICs of the CDC AR Isolate Bank are reported by the CDC [10], and MIC of all other isolates were determined by agar dilution according to the Clinical and Laboratory Standards Institute (CLSI) guidelines.

Molecule	Antibiotic MICs (Neisseria gonorrhoeae [3]; isolate ng_1)	Antibiotic MICs (Neisseria gonorrhoeae [3]; isolate ng_2)	Antibiotic MICs (Neisseria gonorrhoeae [3]; isolate ng_3)	Antibiotic MICs (Neisseria gonorrhoeae [3]; isolate ng_4)	Antibiotic MICs (Neisseria gonorrhoeae [3]; isolate ng_5)	Antibiotic MICs (Neisseria gonorrhoeae [3]; isolate ng_6)	Antibiotic MICs (Neisseria gonorrhoeae [3]; isolate ng_12)	Antibiotic MICs (Neisseria gonorrhoeae [3]; isolate ng_15)	Antibiotic MICs (Neisseria gonorrhoeae [3]; isolate ng_16)	Antibiotic MICs (Neisseria gonorrhoeae [3]; isolate ng_17)	Antibiotic MICs (Neisseria gonorrhoeae [3]; isolate ng_18)	Antibiotic MICs (Neisseria gonorrhoeae [3]; isolate ng_19)	Antibiotic MICs (Neisseria gonorrhoeae [3]; isolate ng_20)	Antibiotic MICs (Neisseria gonorrhoeae [3]; isolate ng_30)	Antibiotic MICs (Neisseria gonorrhoeae [3]; isolate ng_41)	Antibiotic MICs (Neisseria gonorrhoeae [3]; isolate ng_44)	further results
CO/N=C(\C(=O)N[C@@H]1C(=O)N2C(C(=O)O)=C(CSc3nc(=O)c(=O)[nH]n3C)CS[C@H]12)c1csc(N)n1 [CRO, ceftriaxone]	≤0.008 µg/mL	<0.008 µg/mL	≤0.008 µg/mL	0.030 µg/mL	0.015 µg/mL	≤0.008 µg/mL	0.015 µg/mL	≤0.008 µg/mL	≤0.008 µg/mL	≤0.008 µg/mL	0.030 µg/mL	0.015 µg/mL	≤0.008 µg/mL	0.500 µg/mL	0.125 µg/mL	≤0.008 µg/mL	average percentage of DNA released from susceptible isolates (E. coli isolates): 6%; Cqs of treated sample compared with control (no ABX) (Neisseria gonorrhoeae [1]; ceftriaxone-resistant isolate ng_30, 15-minute incubation with 1% TritonX-100 and DNaseI): not distinguishable from the control; difference in relative concentrations (inaccessible DNA) control vs treated (Neisseria gonorrhoeae [1]; ceftriaxone-susceptible isolate ng_3, 15-minute incubation with 1% TritonX-100 and DNaseI): 11 fold; Cq difference between control and antibiotic-treated sample (FIG. 3 bars (a) and (b)) (Neisseria gonorrhoeae [1]; ceftriaxone-susceptible isolate ng_3, 15-minute incubation with 1% TritonX-100 and DNaseI in MH media): 3.5 Cq; CT ratio (control/treated, qPCR) (Neisseria gonorrhoeae [2]; ceftriaxone-susceptible isolates ng_5, ng_17, ng_19): > 1.5; CT ratio (control/treated, qPCR) (Neisseria gonorrhoeae [2]; reduced-susceptibility isolate ng_30): < 1.5; Antibiotic MICs (Neisseria gonorrhoeae [3]; isolate ng_15, listed as ceftriaxone): < 0.008 µg/mL; Antibiotic MICs (Neisseria gonorrhoeae [3]; isolate ng_17, listed as ceftriaxone): ≤ 0.008 µg/mL; Antibiotic MICs (Neisseria gonorrhoeae [3]; isolate ng_30, listed as ceftriaxone): 0.05 µg/mL
penicillin	0.250 µg/mL	0.250 µg/mL	0.250 µg/mL	0.500 µg/mL	1.000 µg/mL	0.250 µg/mL	0.500 µg/mL	0.015 µg/mL	0.015 µg/mL	0.060 µg/mL	2.000 µg/mL	2.000 µg/mL	0.060 µg/mL	1.000 µg/mL	2.000 µg/mL	8.000 µg/mL	
